Assay results as given in US10869878B2, “Vaginal composition and use thereof” (SINGAPORE ZE&Z INTERNATIONAL PTE. LTD, priority 2014, dated 2020).

What was measured:
Assay type in all cases: cell-based
[1] = system: BV-associated bacteria; experiment: Acid production by BV-associated bacteria in carbohydrate containing gels, slightly aerobic incubation (Experimental Example 1); details: 1% (w/v) carbohydrate gel
Source text: (1) Grouping in experiment: • (1) Isomaltulose group: containing 1% (w/v) isomaltulose, MRS basal medium without carbohydrate, 5% (w/v) calf serum, and 0.5% (w/v) xanthan gum, pH5.4; • (2) Isomaltose group: containing 1% (w/v) isomaltose, MRS basal medium without carbohydrate, 5% (w/v) calf serum, and 0.5% (w/v) xanthan gum, pH5.4; • (3) Sucrose group: containing 1% (w/v) sucrose, MRS basal medium without carbohydrate, 5% (w/v) calf serum, and 0.5% (w/v) xanthan gum, pH5.4; and • (4) Maltose group: containing 1% (w/v) maltose, MRS basal medium without carbohydrate, 5% (w/v) calf serum, and 0.5% (w/v) xanthan gum, pH5.4.
The gel of each group was formulated essentially following the method described in Composition Example 1, then sterilized, added with calf serum, and packed in test tubes in a specification of 5 g/tube, for late use.
(§1) (2) Secretion specimens from BV patients: vaginal secretions from 5 BV patients; and the criteria of inclusion are: • (1) conforming to the Amsel clinical criteria of BV diagnosis, wherein the pH value of the vaginal secretions was >4.6; • (2) after smearing, Gram staining and microscopical examination of vaginal secretions, Nugent score ≥7; and • (3) no other vaginosis and no antimicrobial agent is used within two weeks.
(3) After sampling, the secretion specimens from BV patients meeting the criteria of inclusion were immediately inoculated to the above 4 gels containing a carbohydrate, and slightly aerobically incubated at 37° C. for 46 hrs. The pH values of the gel matrices are detected with a precise pH test paper respectively at 14 hrs, 36 hrs, and 46 hrs.

[2] = system: BV-associated bacteria; experiment: Acid production by BV-associated bacteria in semi-solid agars containing a carbohydrate, anaerobic incubation (Experimental Example 2); details: 24 hrs anaerobic, 37° C., 1.5% (w/v) carbohydrate, initial pH 5.4
Source text: (1) Grouping in experiment: • (1) Glucose group: containing 1.5% (w/v) glucose, MRS basal medium without carbohydrate, 5% (w/v) calf serum, and 0.45% (w/v) agar, pH5.4; • (2) Fructose group: containing 1.5% (w/v) fructose, MRS basal medium without carbohydrate, 5% (w/v) calf serum, and 0.45% (w/v) agar, pH5.4; • (3) Mannose group: containing 1.5% (w/v) mannose, MRS basal medium without carbohydrate, 5% (w/v) calf serum, and 0.45% (w/v) agar, pH5.4; • (4) Sucrose group: containing 1.5% (w/v) sucrose, MRS basal medium without carbohydrate, 5% (w/v) calf serum, and 0.45% (w/v) agar, pH5.4; • (5) Maltose group: containing 1.5% (w/v) maltose, MRS basal medium without carbohydrate, 5% (w/v) calf serum, and 0.45% (w/v) agar, pH5.4; • (6) Isomaltose group: containing 1.5% (w/v) isomaltose, MRS basal medium without carbohydrate, 5% (w/v) calf serum, and 0.45% (w/v) agar, pH5.4; and • (7) Isomaltulose group: containing 1.5% (w/v) isomaltulose, MRS basal medium without carbohydrate, 5% (w/v) calf serum, and 0.45% (w/v) agar, pH5.4.
The semi-solid agar of each group was formulated essentially following the method described in Composition Example 1, then sterilized, added with calf serum, and packed in test tubes in a specification of 5 g/tube, for late use.
as §1
(3) After sampling, the secretion specimens from BV patients meeting the criteria of inclusion were immediately inoculated to the above 7 aseptic semi-solid agars containing a carbohydrate at the bedside and anaerobically incubated at 37° C. for 24 hrs. The pH values of the agar matrices are detected with a precise pH test paper.

[3] = system: Bifidobacteria in the secretions from BV patients; experiment: Selective promotion of carbohydrate containing gels for the growth of Bifidobacteria (Experimental Example 4); details: secretions from 20 BV patients; 1% (w/v) carbohydrate gel, 48 hrs slightly aerobic
Protocol: (3) After sampling, the vaginal secretion specimens from BV patients meeting the criteria of inclusion were immediately inoculated to the above 4 gels containing a carbohydrate, slightly aerobically incubated at 37° C. for 48 hrs, then transferred to a plate containing improved MRS with 1% (w/v) glucose and 5% (w/v) calf serum, slightly aerobically incubated for 20-48 hrs, isolated, purified and multiplied. The strain was identified by 16s rDNA sequencing.

[4] = system: Canidia albicans; experiment: Metabolization of carbohydrates by Canidia albicans, residual carbohydrate by HPLC (Experimental Example 5); details: 72 hrs aerobic, 37° C., initial 1.5% (w/v) carbohydrate, pH 7.0, detection limit 0.05% (w/v)
Protocol: (1) Grouping in experiment:
(2) Test strain: 2 strains of Canidia albicans, isolated from patients with candidal vaginitis.
The supernatant was separated by centrifugation, and packed in a specification of 5 ml/tube. The carbohydrate content in each tube was detected by HPLC.

[5] = Specimen 1, 14 hrs, slightly aerobic, 37° C., initial pH 5.4
[6] = Specimen 1, 46 hrs, slightly aerobic, 37° C., initial pH 5.4
[7] = Specimen 2, 14 hrs, slightly aerobic, 37° C., initial pH 5.4
[8] = Specimen 2, 46 hrs, slightly aerobic, 37° C., initial pH 5.4
[9] = Specimen 3, 14 hrs, slightly aerobic, 37° C., initial pH 5.4
[10] = Specimen 3, 36 hrs, slightly aerobic, 37° C., initial pH 5.4
[11] = Specimen 4, 14 hrs, slightly aerobic, 37° C., initial pH 5.4
[12] = Specimen 4, 36 hrs, slightly aerobic, 37° C., initial pH 5.4
[13] = Specimen 5, 14 hrs, slightly aerobic, 37° C., initial pH 5.4
[14] = Specimen 5, 36 hrs, slightly aerobic, 37° C., initial pH 5.4

| SMILES | pH of the gel ([1]; Specimen 1, 0 hr (initial)) | pH of the gel [1, 5] | pH of the gel [1, 6] | pH of the gel ([1]; Specimen 2, 0 hr (initial)) | pH of the gel [1, 7] | pH of the gel [1, 8] | pH of the gel ([1]; Specimen 3, 0 hr (initial)) | pH of the gel [1, 9] | pH of the gel [1, 10] | pH of the gel ([1]; Specimen 4, 0 hr (initial)) | pH of the gel [1, 11] | pH of the gel [1, 12] | pH of the gel ([1]; Specimen 5, 0 hr (initial)) | pH of the gel [1, 13] | pH of the gel [1, 14] | pH of the semi-solid agar ([2]; Specimen 1) | pH of the semi-solid agar ([2]; Specimen 2) | pH of the semi-solid agar ([2]; Specimen 3) | pH of the semi-solid agar ([2]; Specimen 4) | pH of the semi-solid agar ([2]; Specimen 5) | also measured |
| --- | --- | --- | --- | --- | --- | --- | --- | --- | --- | --- | --- | --- | --- | --- | --- | --- | --- | --- | --- | --- | --- |
| OC[C@H]1O[C@@](CO)(O[C@H]2O[C@H](CO)[C@@H](O)[C@H](O)[C@H]2O)[C@@H](O)[C@@H]1O [Sucrose, sucrose] | 5.4 | ≤3.8 | ≤3.8 | 5.4 | 4.4 | ≤3.8 | 5.4 | 4.8-5.1 | 4.4-4.6 | 5.4 | 4.8-5.1 | ≤3.8 | 5.4 | 4.4-4.6 | 4.4-4.6 | 4.1-4.4 | 3.8-4.1 | 3.8 | 4.1 | 3.8 | number of samples positive for Bifidobacterium bifidum [3]: 0; number of samples positive for Bifidobacterium breve [3]: 0; number of samples positive for Bifidobacterium dentium [3]: 0; number of samples positive for Bifidobacterium longum [3]: 0; samples positive for Bifidobacteria, In total [3]: 0; residual carbohydrate content by HPLC ([4]; Canidia albicans 1): 1.04 g %; residual carbohydrate content by HPLC ([4]; Canidia albicans 2): 0.95 g % |
| OC[C@H]1O[C@H](OC[C@H]2OC(O)[C@H](O)[C@@H](O)[C@@H]2O)[C@H](O)[C@@H](O)[C@@H]1O (stereo partly drawn) [Isomaltose, isomaltose] | 5.4 | 3.8 | ≤3.8 | 5.4 | 4.1-4.4 | ≤3.8 | 5.4 | 4.1-4.4 | ≤3.8 | 5.4 | 4.4 | ≤3.8 | 5.4 | 4.1-4.4 | 4.1-4.4 | 3.8-4.1 | 4.1 | 3.8 | 3.8 | 3.8 | number of samples positive for Bifidobacterium bifidum [3]: 0; number of samples positive for Bifidobacterium breve [3]: 0; number of samples positive for Bifidobacterium dentium [3]: 0; number of samples positive for Bifidobacterium longum [3]: 0; samples positive for Bifidobacteria, In total [3]: 0; residual carbohydrate content by HPLC ([4]; Canidia albicans 1): 0.74 g %; residual carbohydrate content by HPLC ([4]; Canidia albicans 2): 0.76 g % |
| OC[C@H]1O[C@H](OC[C@H]2OC(O)(CO)[C@@H](O)[C@@H]2O)[C@H](O)[C@@H](O)[C@@H]1O (stereo partly drawn) [Isomaltulose, isomaltulose] | 5.4 | ≤3.8 | ≤3.8 | 5.4 | 4.1 | ≤3.8 | 5.4 | 3.8-4.1 | ≤3.8 | 5.4 | 4.1 | ≤3.8 | 5.4 | 4.1-4.4 | ≤3.8 | 3.8 | 3.8 | 3.8 | 3.8 | 3.8 | number of samples positive for Bifidobacterium bifidum [3]: 0; number of samples positive for Bifidobacterium breve [3]: 0; number of samples positive for Bifidobacterium dentium [3]: 0; number of samples positive for Bifidobacterium longum [3]: 0; samples positive for Bifidobacteria, In total [3]: 0; residual carbohydrate content by HPLC ([4]; Canidia albicans 1): 0.11 g %; residual carbohydrate content by HPLC ([4]; Canidia albicans 2): 0.12 g % |
